# Measured values reported in US9045461B2, “Phenyl-heteroaryl derivatives and methods of use thereof” (TransTech Pharma, LLC, priority 2010, dated 2015).
# Counter-ions that a name gives are not always drawn.
# Tests used:
# sRAGE binding to S100b = molecular target: T1, sRAGE binding to S100b (Homo sapiens, UniProt Q15109); experiment: RAGE binding assay (ELISA), S100b as the RAGE ligand; conditions: compounds tested in hydrochloride salt form, concentration at which 50% signal has been inhibited
# T1 construct: extracellular domain can be isolated by proteolysis of RAGE to generate soluble RAGE (sRAGE) comprised of the V and C domains
# T1 sequence (Q15109 23-342 limits assumed): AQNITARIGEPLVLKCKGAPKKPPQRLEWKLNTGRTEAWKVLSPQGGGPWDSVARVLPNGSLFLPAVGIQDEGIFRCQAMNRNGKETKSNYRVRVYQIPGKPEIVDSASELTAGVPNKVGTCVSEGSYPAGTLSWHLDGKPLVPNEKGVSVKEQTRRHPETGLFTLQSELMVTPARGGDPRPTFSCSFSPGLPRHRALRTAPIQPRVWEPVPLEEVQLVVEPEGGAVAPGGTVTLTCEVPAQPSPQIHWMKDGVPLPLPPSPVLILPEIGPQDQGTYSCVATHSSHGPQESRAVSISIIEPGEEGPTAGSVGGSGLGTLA
# Protocol: (§1) The following assay method may be used to identify compounds of Formula (I) or pharmaceutically acceptable salts thereof which are useful as inhibitors of binding of physiological RAGE ligands, such as S100b and β-amyloid, to RAGE.
# (§2) S100b, β-amyloid, or CML (500 ng/100 μL/well) in 100 mM sodium bicarbonate/sodium carbonate buffer (pH 9.8) is loaded onto the wells of a NUNC Maxisorp flat bottom 96-well microtitre plate. The plate is incubated at 4° C. overnight. The wells are aspirated and treated with 50 mM imidazole buffer saline (pH 7.2) (with 5 mM CaCl2/MgCl2) containing 1% bovine serum albumin (BSA) (300 μL/well) for 1 h at RT. The wells are aspirated.
# (§3) Test compounds are dissolved in nanopure water (concentration: 10-100 μM). DMSO may be used as co-solvent. 25 μL of test compound solution in 4% DMSO is added, along with 75 μL sRAGE (6 nM FAC) to each well and samples are incubated for 1 h at 37° C. The wells are washed several times with 155 mM NaCl pH 7.2 buffer saline and are soaked for several seconds between each wash.
# (§4) Non-radioactive detection is performed by adding:
# (§5) 10 μL Biotinylated goat F(ab′)2 Anti-mouse IgG. (8.0×10-4 mg/mL, FAC), 5 μL Alk-phos-Streptavidin (3×10-3 mg/mL FAC), 0.42 μL per 5 mL Monoclonal antibody for sRAGE (FAC 6.0×10-3 mg/mL) to 5 mL 50 mM imidazole buffer saline (pH 7.2) containing 0.2% bovine serum albumin and 5 mM CaCl2. The mixture is incubated for 30 minutes at RT.
# (§6) 100 μL of complex is added to each well and incubation is allowed to proceed at rt for 1 h. Wells are washed several times with wash buffer and soaked several seconds between each wash. 100 μL 1 mg/mL (pNPP) in 1 M diethanolamine (pH adjusted to 9.8 with HCl) is added. Color is allowed to develop in the dark for 30 min to 1 h at rt. The reaction is quenched with 10 μL of stop solution (0.5-1.0 N NaOH in 50% ethanol) and the absorbance is measured spectrophotometrically with a microplate reader at 405 nm.
# (§7) The IC50 (μM) value in the ELISA assay represents the concentration of compound at which 50% signal has been inhibited.
# [1] = molecular target: T2, sRAGE binding to β-amyloid (Homo sapiens, UniProt Q15109); experiment: RAGE binding assay (ELISA), β-amyloid as the RAGE ligand; conditions: compounds tested in hydrochloride salt form, concentration at which 50% signal has been inhibited
# T2 construct: extracellular domain can be isolated by proteolysis of RAGE to generate soluble RAGE (sRAGE) comprised of the V and C domains
# T2 sequence (Q15109 23-342 limits assumed): as above
# Protocol: as §1, §2, §3, §4, §5, §6, §7
SMILES,IC50 (sRAGE binding to S100b),IC50 [1]
"CCCCc1nnc(C(=O)N[C@H]2CC[C@@H](N(C)C)CC2)cc1-c1ccc(OC2CCCCC2)cc1 [Example 95, (±)-(cis)-6-Butyl-5-(4-cyclohexyloxy-phenyl)-pyridazine-3-carboxylic acid (4-dimethylamino-cyclohexyl)-amide dihydrochloride]",690 nM,1050 nM
"CCCCc1nnc(O[C@@H]2CN(C)CC[C@H]2C(F)F)cc1-c1ccc(OC2CCCCC2)cc1 (racemic) [Example 48, (±)-trans-3-butyl-4-(4-cyclohexyloxy-phenyl)-6-(4-difluoromethyl-1-methyl-piperidin-3-yloxy)-pyridazine dihydrochloride]",2600 nM,8960 nM
"CN1CCC(Oc2cc(-c3ccc(OC4CCCCC4)cc3)c(C3CC3)nn2)CC1 [Example 59, 4-(4-cyclohexyloxy-phenyl)-3-cyclopropyl-6-(1-methyl-piperidin-4-yloxy)-pyridazine dihydrochloride]",4790 nM,3160 nM
"CCCCc1nnc(OC[C@H]2CCN(C)C[C@H]2O)cc1-c1ccc(OC2CCCCC2)cc1 (racemic) [Example 24, (±)-cis-4-[6-Butyl-5-(4-cyclohexyloxy-phenyl)-pyridazin-3-yloxymethyl]-1-methyl-piperidin-3-ol dihydrochloride]",2640 nM,2900 nM
"CCCCc1nnc(OC[C@H]2CCN(C)C[C@@H]2OC)cc1-c1ccc(OC2CCCCC2)cc1 (racemic) [Example 36, (±)-trans-3-Butyl-4-(4-cyclohexyloxy-phenyl)-6-(3-methoxy-1-methyl-piperidin-4-ylmethoxy)-pyridazine dihydrochloride]",960 nM,960 nM
"CCCCc1nnc(OC2CCN(C)CC2)cc1-c1ccc(OC2CCCCC2)c(N2CCCC2=O)c1 [Example 68, 1-{5-[3-Butyl-6-(1-methyl-piperidin-4-yloxy)-pyridazin-4-yl]-2-cyclohexyloxy-phenyl}-pyrrolidin-2-one dihydrochloride]",2040 nM,2490 nM
"CCCCc1nnc(OC2CCN(C)CC2)cc1-c1ccc(OCc2ccccc2)cc1 [Example 1, 4-(4-enzyloxy-phenyl)-3-butyl-6-(1-methyl-piperidin-4-yloxy)-pyridazine dihydrochloride]",950 nM,1090 nM
"CCCCc1nnc(OCC2CN(C)C2)cc1-c1ccc(OCc2ccccc2)cc1 [Example 9, 4-(4-Benzyloxy-phenyl)-3-butyl-6-(1-methyl-azetidin-3-ylmethoxy)-pyridazine dihydrochloride]",2700 nM,3140 nM
"CCCCc1nnc(OC2CCN(C)CC2)cc1-c1ccc(OC2CCCCC2)c(-c2ncco2)c1 [Example 65, 3-Butyl-4-(4-cyclohexyloxy-3-oxazol-2-yl-phenyl)-6-(1-methyl-piperidin-4-yloxy)-pyridazine dihydrochloride salt]",2120 nM,1780 nM
"CCCCc1nnc(OC2CCN(C)CC2)cc1-c1ccc(OC2CCCCC2)c(-c2cnoc2)c1 [Example 72, 3-Butyl-4-(4-cyclohexyloxy-3-isoxazol-4-yl-phenyl)-6-(1-methyl-piperidin-4-yloxy)-pyridazine dihydrochloride]",1690 nM,1200 nM
"CCCCc1nnc(C(=O)N[C@H]2CCN(C)C[C@H]2O)cc1-c1ccc(OC2CCCCC2)cc1 (racemic) [Example 112, (±)-cis-6-Butyl-5-(4-cyclohexyloxy-phenyl)-pyridazine-3-carboxylic acid (3-hydroxy-1-methyl-piperidin-4-yl)-amide dihydrochloride]",1440 nM,1470 nM
"CCCCc1nnc(C(=O)N[C@H]2CN3CCC2CC3)cc1-c1ccc(OC2CCCCC2)cc1 [Example 86, (R)-6-Butyl-5-(4-cyclohexyloxy-phenyl)-pyridazine-3-carboxylic acid (1-aza-bicyclo[2.2.2]oct-3-yl)-amide dihydrochloride]",1920 nM,1020 nM
"CCCCc1nnc(OC2CCN(C)CC2)cc1-c1ccc(OC2CCCCC2)c(C(=O)OC)c1 [Example 71, 5-[3-Butyl-6-(1-methyl-piperidin-4-yloxy)-pyridazin-4-yl]-2-cyclohexyloxy-benzoic acid methyl ester dihydrochloride]",1130 nM,1590 nM
"CCCCc1nnc(C(=O)N2CCO[C@@H](CN(C)C)C2)cc1-c1ccc(OC2CCCCC2)cc1 [Example 97, [6-Butyl-5-(4-cyclohexyloxy-phenyl)-pyridazin-3-yl]-((S)-2-dimethylaminomethyl-morpholin-4-yl)-methanone dihydrochloride]",1890 nM,1720 nM
"CCCCc1nnc(C(=O)NCC2CN(C)CCC2(F)F)cc1-c1ccc(OC2CCCCC2)cc1 (stereo not shown) [Example 99, 6-Butyl-5-(4-cyclohexyloxy-phenyl)-pyridazine-3-carboxylic acid (4,4-difluoro-1-methyl-piperidin-3-ylmethyl)-amide dihydrochloride]",1820 nM,1810 nM
"CCCCc1nnc(OC2CCN(C)CC2)c(C(F)(F)F)c1-c1ccc(OC2CCCCC2)cc1 [Example 58, 3-butyl-4-(4-cyclohexyloxy-phenyl)-6-(1-methyl-piperidin-4-yloxy)-5-trifluoromethyl-pyridazine dihydrochloride]",740 nM,760 nM
"CCCCc1nnc(OCCCN2CCOCC2)cc1-c1ccc(OCc2ccccc2)cc1 [Example 8, 4-{3-[5-(4-Benzyloxy-phenyl)-6-butyl-pyridazin-3-yloxy]-propyl}-morpholine dihydrochloride]",4840 nM,3720 nM
"CCCCc1nnc(OCC[C@@H]2CCCCN2C)cc1-c1ccc(OC2CCCCC2)cc1 [Example 33, 3-butyl-4-(4-cyclohexyloxy-phenyl)-6-[2-((S)-1-methyl-piperidin-2-yl)-ethoxy]-pyridazine dihydrochloride]",2630 nM,1480 nM
"CCCc1nnc(OC2CCN(C)CC2)cc1-c1ccc(OCc2ccccc2)cc1 [Example 12, 4-(4-Benzyloxy-phenyl)-6-(1-methyl-piperidin-4-yloxy)-3-propyl-pyridazine dihydrochloride]",1190 nM,1540 nM
"CCCCc1nnc(OC[C@H]2CCN(C)C[C@H]2OC)cc1-c1ccc(OC2CCCCC2)cc1 (racemic) [Example 35, (±)-cis-3-Butyl-4-(4-cyclohexyloxy-phenyl)-6-(3-methoxy-1-methyl-piperidin-4-ylmethoxy)-pyridazine dihydrochloride]",740 nM,740 nM
"CCCCc1nnc(C(=O)NCC2CN(C)CCC2O)cc1-c1ccc(OC2CCCCC2)cc1 (stereo not shown) [Example 100, 6-Butyl-5-(4-cyclohexyloxy-phenyl)-pyridazine-3-carboxylic acid (4-hydroxy-1-methyl-piperidin-3-ylmethyl)-amide dihydrochloride]",590 nM,1160 nM
"CCCCc1nnc(OC2CCN(C)CC2)cc1-c1ccc(OC2CCC(F)(F)CC2)cc1 [Example 19, 3-Butyl-4-[4-(4,4-difluoro-cyclohexyloxy)-phenyl]-6-(1-methyl-piperidin-4-yloxy)-pyridazine dihydrochloride]",640 nM,870 nM
"CCCCc1nnc(OC[C@H]2CN(C)C[C@@H]2COC)cc1-c1ccc(OCc2ccccc2)cc1 (racemic) [Example 7, (±)-trans-4-(4-Benzyloxy-phenyl)-3-butyl-6-(4-methoxymethyl-1-methyl-pyrrolidin-3-ylmethoxy)-pyridazine dihydrochloride]",2330 nM,1520 nM
"CCCCc1nnc(OC2CCN(CC(C)(C)O)CC2)cc1-c1ccc(OC2CCCCC2)cc1 [Example 22, 1-{4-[6-Butyl-5-(4-cyclohexyloxy-phenyl)-pyridazin-3-yloxy]-piperidin-1-yl}-2-methyl-propan-2-ol dihydrochloride]",1380 nM,1120 nM
"CCCCc1nnc(OC2CCN(C)CC2)cc1-c1ccc(OCc2ccc(Cl)cc2)cc1 [Example 50, 3-butyl-4-[4-(4-chloro-benzyloxy)-phenyl]-6-(1-methyl-piperidin-4-yloxy)-pyridazine dihydrochloride]",1420 nM,1960 nM
"CCCCc1nnc(C(=O)NC2CC3CCC(C2)N3C)cc1-c1ccc(OC2CCCCC2)cc1 (stereo not shown) [Example 96, 6-Butyl-5-(4-cyclohexyloxy-phenyl)-pyridazine-3-carboxylic acid (8-methyl-8-aza-bicyclo[3.2.1]oct-3-yl)-amide dihydrochloride]",1160 nM,940 nM
